Like-named read-outs stand apart in the source and are kept apart here. No end group written: not given here.
Experiments:
[1] = stabilizing effect of other amino acids upon thymopentin in aqueous formulation
Experimental: To the peptide solution is added a sufficient amount of glycine to stabilize the solution.

[2] = immunostimulation in laboratory animals, injectable aqueous formulation; format: in vivo; settings: injectable aqueous formulation prepared immediately prior to use
Experimental: (§1) In experiments with thymopentin, it was observed that the optimal doses of thymopentin in an injectable aqueous formulation for immunostimulation in laboratory animals was about 1 μg/kg of body weight. For laboratory use, these dosages were prepared immediately prior to use.

[3] = human clinical research, clinical pharmacological result; format: in vivo; settings: patients
Experimental: as §1

Compound | stabilizing effect upon thymopentin [1] | also measured
C[C@H](N)C(=O)O [alanine] | do not exert the stabilizing effect | –
N=C(N)NCCC[C@H](N)C(=O)O [arginine] | do not exert the stabilizing effect | –
N[C@@H](CC(=O)O)C(=O)O [aspartic acid] | do not exert the stabilizing effect | –
N[C@@H](CCC(=O)O)C(=O)O [glutamic acid] | – | stabilizing effect upon thymopentin ([1]; amino acid in place of glycine): do not exert the stabilizing effect
N[C@@H](Cc1c[nH]cn1)C(=O)O [histidine] | do not exert the stabilizing effect | –
NCCCC[C@H](N)C(=O)O [lysine] | do not exert the stabilizing effect | –
O=C(O)[C@@H]1CCCN1 [proline] | do not exert the stabilizing effect | –
N[C@@H](Cc1c[nH]c2ccccc12)C(=O)O [tryptophan] | do not exert the stabilizing effect | –
N[C@@H](Cc1ccc(O)cc1)C(=O)O [tyrosine] | do not exert the stabilizing effect | –
RKDVY [thymopentin] | – | optimal dose for immunostimulation [2]: about 1 μg/kg of body weight; dose required to produce a clinical pharmacological result [3]: ≥ 1 mg/kg body weight

Source: patent US5140010A, “Stabilized aqueous formulations of thymopentin” (Immunobiology Research Institute, priority 1991, dated 1992)
